Laboratory results as given in PMC8268887, “Peptide/β-Peptoid Hybrids with Ultrashort PEG-Like Moieties: Effects on Hydrophobicity, Antibacterial Activity and Hemolytic Properties” (International Journal of Molecular Sciences, 2021).
≈ marks a conversion by molar mass, not a printed value. Read-outs that look alike come from different tables or passages of the source.

Key:
[1] = Hydrophobicity by retention in analytical RP-HPLC (% MeCN at peak elution); format: physicochemical; conditions: for % MeCN at Elution, Aeris Peptide: Phenomenex Aeris Peptide XB-C18 column; for % MeCN at Elution, Aeris Peptide / % MeCN at Elution, Luna Omega / % MeCN at Elution, Supelco Discovery: gradient 0→60% B during 15 min; for % MeCN at Elution, Luna: Phenomenex Luna C18(2) column, RP-HPLC gradient 0→60% B during 15 min, relative hydrophobicity; for % MeCN at Elution, Luna Omega: Phenomenex Luna Omega Polar C18 column; for % MeCN at Elution, Supelco Discovery: Supelco Discovery BIO Wide pore C18 column
Protocol: For each peptide/β-peptoid hybrid oligomer, the retention time in RP-HPLC was measured on four different columns (details shown in Table 2): Phenomenex Luna C18(2) column (recommended for hydrophobic compounds [49]), Phenomenex Luna Omega Polar C18 column (recommended for both very polar and non-polar compounds [50]) as well as Phenomenex Aeris Peptide XB-C18 [51] and Sigma-Aldrich Supelco Discovery BIO Wide pore C18 [52] columns, which both are recommended for analysis of peptides. The retention times of the compounds on each column were used to calculate the acetonitrile concentration at peak elution (denoted merely as % MeCN; Table 1). As expected, the % MeCN for each compound varied somewhat between the four columns.
Starting materials and solvents were acquired from commercial suppliers (Iris Biotech, Markredwitz, Germany; Fluorochem, Hadfield, UK; and Merck, Darmstadt, Germany) and used without further purification. Water used for analytical and preparative high-performance liquid chromatography (HPLC) was filtered through a 0.22-μm capsule filter using an Evoqua LaboStar Pro TWF UV system. Purity and retention time of each peptidomimetic were determined by analytical HPLC by using a Phenomenex Luna Omega Polar C18 column (150 × 4.6 mm; particle size: 3 μm; pore size: 100 Å) on a Shimadzu Prominence and Shimadzu Nexera system using an aqueous acetonitrile (MeCN, VWR, Søborg, Denmark) gradient with 0.1% trifluoroacetic acid (TFA, Iris Biotech, Markredwitz, Germany) added (eluent A: 5:95 MeCN–H2O + 0.1% TFA, eluent B: 95:5 MeCN–H2O + 0.1% TFA); a flow rate of 0.8 mL/min was used. For elution of peptidomimetics, a linear gradient of 0% to 60% B during 15 min was used with UV detection at λ = 220 nm. […] Retention time of each peptidomimetic was also determined by using a Phenomenex Luna C18(2) column (150 × 4.6 mm; particle size: 3 μm; pore size: 100 Å), a Phenomenex Aeris Peptide XB-C18 column (150 × 4.6 mm; particle size: 3.6 μm; pore size: 100 Å), and a Sigma-Aldrich Supelco Discovery BIO Wide pore C18 column (150 × 4.6 mm, particle size: 3 µm; pore size: 300 Å). For each peptidomimetic, the percentage of MeCN at peak elution was calculated from the retention time by using the following formula:(1) %MeCN =0.95 (0.6Rt/15 min)+0.05 (1−0.6Rt/15 min)

[2] = tested on: S. aureus ATCC 29213; format: cell-based, Staphylococcus aureus; conditions: ATCC 29213, 20 h
Protocol: (§1) MIC values of the peptidomimetics were evaluated by using the modified Hancock lab protocol in non-binding polystyrene microtiter plates. Bacterial suspensions of ~5 × 10^5 CFU/mL in Mueller-Hinton broth (Difco, Sparks, MD, USA) were prepared with Mg^2+ and Ca^2+ concentrations of 4 mg/L each. The compounds were dissolved in H2O and diluted in 0.01% acetic acid, 0.2% BSA (final concentration). Aliquots (11 µL) of test compounds were then transferred to wells containing bacterial suspensions (100 µL). Low-binding sterile tubes and tips (Axygen, Union City, CA, USA) were used for preparation and transfer of the solutions of the compounds. Following incubation for 20 h of the covered plates at 35 °C (±2 °C) with circular shaking at 180 rpm, the MICs were read.

[3] = tested on: E. faecalis ATCC 29212; format: cell-based; conditions: ATCC 29212, 20 h
Protocol: as §1

[4] = tested on: K. pneumoniae ATCC 13883; format: cell-based
Protocol: as §1

[5] = Determination of hemolytic activity; format: cell-based; conditions: red blood cell suspension in PBS buffer, human red blood cells at 400 µg/mL, 37 °C
Protocol: The lysis of human red blood cells was measured almost as previously described, albeit with modifications. In brief, a suspension of freshly drawn human red blood cells (hRBCs) was washed three times with PBS buffer and centrifuged two times for 5 min at 2500 rpm. A two-fold serial dilution of compounds in PBS buffer was prepared. Plates (conical-bottomed 96-well plates) with three replicate wells per dilution, each containing 1% red blood cell suspension, were prepared and dosed with the test compound to achieve a final concentration of 400 μg/mL in a total volume of 100 μL. The plates were incubated (37 °C) for 60 min with mild agitation, and then the cells were pelleted by centrifugation at 1500 rpm for 5 min. The supernatants (50 μL) were then transferred to a fresh 96-well plate, and the concentration of hemoglobin was detected by measuring the OD at 405 nm. The OD of cells incubated with 1% SDS defined 100% hemolysis, while the OD of cells incubated with PBS buffer defined 0% hemolysis. The concentration tested was 400 μg/mL (only average values are stated in Table 5). The percent hemolysis was calculated by using the formula:(3) Hemolysis (%)=100×[Asample−Aneg.control/Apos.control−Aneg.control]

[6] = tested on: E. coli NMI 3898/15; format: cell-based, Escherichia coli; conditions: NMI 3898/15, 20 h
Protocol: as §1

[7] = tested on: E. coli ATCC 25922; format: cell-based, Escherichia coli; conditions: ATCC 25922, 20 h
Protocol: as §1

[8] = tested on: E. coli NMI 3371/16; format: cell-based, Escherichia coli; conditions: NMI 3371/16, 20 h
Protocol: as §1

Row | % MeCN at Elution, Aeris Peptide [1] [% MeCN] | % MeCN at Elution, Luna [1] [% MeCN] | % MeCN at Elution, Luna Omega [1] [% MeCN] | % MeCN at Elution, Supelco Discovery [1] [% MeCN] | MIC, SA [2] [µg/mL] | MIC, EF [3] [µg/mL] | MIC, KP [4] | MIC, E. coli NMI 3898/15 [6] [µg/mL] | MIC, EC [7] [µg/mL] | MIC, E. coli NMI 3371/16 [8] [µg/mL] | MIC, KP ([4]; ATCC 13883, 20 h) [µg/mL] | SMILES | hemolysis at 60 min [5] [%]
1 | 39.4 | 41.6 | 41.9 | 41.7 | 16 (≈ 8.6 µM) | >64 | 64–>64 | 8 (≈ 4.3 µM) | 4 to 8 | 8 (≈ 4.3 µM) | – | NCCCC[C@H](NC(=O)CCN(Cc1ccc(F)cc1)C(=O)[C@H](CCCCN)NC(=O)CCN(Cc1ccc(F)cc1)C(=O)[C@H](CCCCN)NC(=O)CCN(Cc1ccc(F)cc1)C(=O)[C@H](CCCCN)NC(=O)CCN(Cc1ccc(F)cc1)C(=O)[C@H](CCCCN)NC(=O)CCN(Cc1ccc(F)cc1)C(=O)[C@@H](N)CCCCN)C(=O)N(CCC(N)=O)Cc1ccc(F)cc1 [Compound 1, H-[Lys-βNPhe(4-F)]6-NH2] | 6.6
2 | 39.2 | 41.3 | 42.0 | 41.3 | >64 | >64 | – | 16 (≈ 6.97 µM) | 8 to 16 | 8 (≈ 3.48 µM) | >64 | NCCCC[C@H](NC(=O)CCN(Cc1ccc(F)cc1)C(=O)[C@H](CCCCN)NC(=O)CCN(Cc1ccc(F)cc1)C(=O)[C@H](CCCCN)NC(=O)COCCOCCN)C(=O)N(CCC(=O)NCCOCCOCC(=O)N[C@@H](CCCCN)C(=O)N(CCC(=O)N[C@@H](CCCCN)C(=O)N(CCC(=O)N[C@@H](CCCCN)C(=O)N(CCC(=O)NCCOCCOCC(N)=O)Cc1ccc(F)cc1)Cc1ccc(F)cc1)Cc1ccc(F)cc1)Cc1ccc(F)cc1 [Compound 12, H-sPEG2-[X]3-sPEG2-[X]3-sPEG2-NH2] | 8.1
3 | 39.0 | 41.1 | 41.4 | 41.2 | >64 | >64 | 64–>64 | 8 (≈ 3.88 µM) | 4 (≈ 1.94 µM) | 4 (≈ 1.94 µM) | – | NCCCC[C@H](NC(=O)CCN(Cc1ccc(F)cc1)C(=O)[C@H](CCCCN)NC(=O)COCCNC(=O)CCN(Cc1ccc(F)cc1)C(=O)[C@H](CCCCN)NC(=O)CCN(Cc1ccc(F)cc1)C(=O)[C@H](CCCCN)NC(=O)COCCNC(=O)CCN(Cc1ccc(F)cc1)C(=O)[C@H](CCCCN)NC(=O)CCN(Cc1ccc(F)cc1)C(=O)[C@@H](N)CCCCN)C(=O)N(CCC(N)=O)Cc1ccc(F)cc1 [Compound 15, H-[X]2-sPEG1-[X]2-sPEG1-[X]2-NH2] | 4.8
4 | 39.9 | 41.9 | 42.8 | 42.1 | >64 | >64 | – | 16 (≈ 6.59 µM) | 8 to 16 | 8 (≈ 3.29 µM) | >64 | NCCCC[C@H](NC(=O)CCN(Cc1ccc(F)cc1)C(=O)[C@H](CCCCN)NC(=O)CCN(Cc1ccc(F)cc1)C(=O)[C@H](CCCCN)NC(=O)COCCOCCOCCN)C(=O)N(CCC(=O)NCCOCCOCCOCC(=O)N[C@@H](CCCCN)C(=O)N(CCC(=O)N[C@@H](CCCCN)C(=O)N(CCC(=O)N[C@@H](CCCCN)C(=O)N(CCC(=O)NCCOCCOCCOCC(N)=O)Cc1ccc(F)cc1)Cc1ccc(F)cc1)Cc1ccc(F)cc1)Cc1ccc(F)cc1 [Compound 13, H-sPEG3-[X]3-sPEG3-[X]3-sPEG3-NH2] | 7.8
5 | 38.7 | 40.8 | 41.4 | 40.8 | >64 | >64 | – | 16 (≈ 7.39 µM) | 8 (≈ 3.7 µM) | 8 (≈ 3.7 µM) | >64 | NCCCC[C@H](NC(=O)CCN(Cc1ccc(F)cc1)C(=O)[C@H](CCCCN)NC(=O)CCN(Cc1ccc(F)cc1)C(=O)[C@H](CCCCN)NC(=O)COCCN)C(=O)N(CCC(=O)NCCOCC(=O)N[C@@H](CCCCN)C(=O)N(CCC(=O)N[C@@H](CCCCN)C(=O)N(CCC(=O)N[C@@H](CCCCN)C(=O)N(CCC(=O)NCCOCC(N)=O)Cc1ccc(F)cc1)Cc1ccc(F)cc1)Cc1ccc(F)cc1)Cc1ccc(F)cc1 [Compound 11, H-sPEG1-[X]3-sPEG1-[X]3-sPEG1-NH2] | 4.6
6 | 40.3 | 42.3 | 42.8 | 42.5 | >64 | >64 | – | 8 to 32 | 4 to 8 | 4 to 16 | 64 (≈ 29.1 µM) | NCCCC[C@H](NC(=O)CCN(Cc1ccc(F)cc1)C(=O)[C@H](CCCCN)NC(=O)CCN(Cc1ccc(F)cc1)C(=O)[C@H](CCCCN)NC(=O)CCOCCOCCOCCOCCOCCOCCNC(=O)CCN(Cc1ccc(F)cc1)C(=O)[C@H](CCCCN)NC(=O)CCN(Cc1ccc(F)cc1)C(=O)[C@H](CCCCN)NC(=O)CCN(Cc1ccc(F)cc1)C(=O)[C@@H](N)CCCCN)C(=O)N(CCC(N)=O)Cc1ccc(F)cc1 [Compound 10, H-[X]3-sPEG6-[X]3-NH2] | 6.3
7 | 39.4 | 41.4 | 41.8 | 41.6 | – | – | – | 8 (≈ 3.99 µM) | 4 (≈ 1.99 µM) | 4 (≈ 1.99 µM) | >64 | NCCCC[C@H](NC(=O)CCN(Cc1ccc(F)cc1)C(=O)[C@H](CCCCN)NC(=O)CCN(Cc1ccc(F)cc1)C(=O)[C@H](CCCCN)NC(=O)COCCOCCNC(=O)CCN(Cc1ccc(F)cc1)C(=O)[C@H](CCCCN)NC(=O)CCN(Cc1ccc(F)cc1)C(=O)[C@H](CCCCN)NC(=O)CCN(Cc1ccc(F)cc1)C(=O)[C@@H](N)CCCCN)C(=O)N(CCC(N)=O)Cc1ccc(F)cc1 [Compound 7, H-[X]3-sPEG2-[X]3-NH2] | 6.1
